Laboratory results reported in paper PMC9199881 (Clinical and Translational Science, 2022).
Blank lines part the entries; values can stand above or below the molecule they belong to.

What was measured:
healthy volunteers = settings: cited from earlier work
healthy subjects [1] = experiment: Concentration-QTc; assay type: in vivo, human; settings: Part B; 400 mg alone
healthy subjects [2] = experiment: Safety assessment; assay type: in vivo, human; settings: Part B; 400 mg alone
[3] = Plasma pharmacokinetics, Part B
healthy subjects [4] = settings: 100 mg twice daily (b.i.d.); cited from earlier work
[5] = human, in vivo, 400 mg, Mean (SD), 400 mg single dose alone
[6] = human, in vivo, 400 mg, Median (range), 400 mg single dose alone

SMILES: CC#CC(=O)N1CCC[C@H]1c1nc(-c2ccc(C(=O)Nc3ccccn3)cc2)c2c(N)nccn12 [acalabrutinib]
prolongation of the QTc interval or clinically relevant ECG effects (healthy volunteers): no prolongation of the QTc interval or clinically relevant ECG effects

Tmax, Median (range) ([3]; 400 mg single dose alone): 2.1 (0.6–10) h | AUC(0-t) ([3]; human, in vivo, 400 mg, AUC0–last, Mean (SD), 400 mg single dose alone): 22700 ng·h/mL | AUC(0-inf) ([3]; human, in vivo, 400 mg, AUC0–∞, Mean (SD), 400 mg single dose alone): 27400 ng·h/mL | Cmax [3, 5]: 2360 ng/mL | Cmax [3, 6]: 2310 ng/mL | Cmax ([3]; human, in vivo, 400 mg, range, single moxifloxacin 400 mg dose): 1230 to 4080 ng/mL | Tmax [3, 5]: 2.2 h | Tmax [3, 6]: ~2 h | geometric mean peak concentration ([3]; moxifloxacin 400 mg): 2260 ng/mL
SMILES: COc1c(N2C[C@@H]3CCCN[C@@H]3C2)c(F)cc2c(=O)c(C(=O)O)cn(C3CC3)c12 [Moxifloxacin, moxifloxacin, reference compound]
predicted ΔΔQTcF at the observed geometric mean Cmax (healthy subjects [1]): 14.7 ms | Treatment-related TEAE: Abdominal pain, n (%) (healthy subjects [2]): 1 (2.8) n (%) | Treatment-related TEAE: Diarrhea, n (%) (healthy subjects [2]): 1 (2.8) n (%) | Treatment-related TEAE: Dizziness, n (%) (healthy subjects [2]): 1 (2.8) n (%) | Treatment-related TEAE: Dysgeusia, n (%) (healthy subjects [2]): 0 n (%) | Treatment-related TEAE: Frequent bowel movements, n (%) (healthy subjects [2]): 0 n (%) | Treatment-related TEAE: Gastrointestinal disorders, n (%) (healthy subjects [2]): 1 (2.8) n (%) | Treatment-related TEAE: Headache, n (%) (healthy subjects [2]): 0 n (%) | Treatment-related TEAE: Herpex simplex, n (%) (healthy subjects [2]): 0 n (%) | Treatment-related TEAE: Infections and infestations, n (%) (healthy subjects [2]): 1 (2.8) n (%) | Treatment-related TEAE: Lethargy, n (%) (healthy subjects [2]): 1 (2.8) n (%) | Treatment-related TEAE: Nausea, n (%) (healthy subjects [2]): 1 (2.8) n (%) | Treatment-related TEAE: Nervous system disorders, n (%) (healthy subjects [2]): 2 (5.6) n (%) | Treatment-related TEAE: Somnolence, n (%) (healthy subjects [2]): 0 n (%) | Treatment-related TEAE: Subjects with ≥1 TEAE, n (%) (healthy subjects [2]): 3 (8.3) n (%) | Treatment-related TEAE: Vomiting, n (%) (healthy subjects [2]): 1 (2.8) n (%) | incidence of treatment-related TEAEs (healthy subjects [2]): 8.3% | participants with diarrhea (healthy subjects [2]): 2.8%

SMILES: C=CC(=O)N1CCC([C@@H]2CCNc3c(C(N)=O)c(-c4ccc(Oc5ccccc5)cc4)nn32)CC1 [zanubrutinib]
prolongation of the QTc interval or clinically relevant ECG effects (healthy volunteers): no prolongation of the QTc interval or clinically relevant ECG effects

SMILES: C=CC(=O)N1CCC(CNc2ncnc(N)c2-c2ccc(Oc3ccccc3)cc2)CC1 [evobrutinib]
prolongation of the QTc interval or clinically relevant ECG effects (healthy volunteers): no prolongation of the QTc interval or clinically relevant ECG effects

SMILES: CC(C)c1nc(CN(C)C(=O)N[C@H](C(=O)N[C@@H](Cc2ccccc2)C[C@H](O)[C@H](Cc2ccccc2)NC(=O)OCc2cncs2)C(C)C)cs1 [ritonavir]
effect on QT (healthy subjects [4]): did not alter QT
